In PubChem BioAssay AID2060513 (Molecular Pharmacology Branch, DTP, NCI, 2025):

Test system: 299254-011-R-J1-PDC complex spheroids viability
Assay: Anticancer human tumor 299254-011-R-J1-PDC patient-derived melanoma cell line growth inhibition [GQUAD]
Settings: for IC50: curve of first compound; for viability, T/C: stronger effect = lower value
Outline: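 Tumor cells were grown as complex spheroids with HUVEC endothelial cells and mesenchymal stem cells as stroma. G-quadruplex stabilizers were combined with targeted agents over half-log dilutions from near the clinical Cmax, or from 10 microM.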

[1] = second compound 0.0316 µM, first compound 0.0316 µM
[2] = second compound 0.0316 µM, first compound 0.1 µM
[3] = second compound 0.0316 µM, first compound 0.316 µM
[4] = second compound 0.0316 µM, first compound 1 µM
[5] = second compound 0.0316 µM, first compound 3.16 µM
[6] = second compound 0.0316 µM, first compound 10 µM
[7] = second compound 0.1 µM, first compound 0.0316 µM
[8] = second compound 0.1 µM, first compound 0.1 µM
[9] = second compound 0.1 µM, first compound 0.316 µM
[10] = second compound 0.1 µM, first compound 1 µM
[11] = second compound 0.1 µM, first compound 3.16 µM
[12] = second compound 0.1 µM, first compound 10 µM
[13] = second compound 0.316 µM, first compound 0.0316 µM
[14] = second compound 0.316 µM, first compound 0.1 µM
[15] = second compound 0.316 µM, first compound 0.316 µM
[16] = second compound 0.316 µM, first compound 1 µM
[17] = second compound 0.316 µM, first compound 3.16 µM
[18] = second compound 0.316 µM, first compound 10 µM
[19] = second compound 1 µM, first compound 0.0316 µM
[20] = second compound 1 µM, first compound 0.1 µM
[21] = second compound 1 µM, first compound 0.316 µM
[22] = second compound 1 µM, first compound 1 µM
[23] = second compound 1 µM, first compound 3.16 µM
[24] = second compound 1 µM, first compound 10 µM
[25] = second compound 3.16 µM, first compound 0.0316 µM
[26] = second compound 3.16 µM, first compound 0.1 µM
[27] = second compound 3.16 µM, first compound 0.316 µM
[28] = second compound 3.16 µM, first compound 1 µM
[29] = second compound 3.16 µM, first compound 3.16 µM
[30] = second compound 3.16 µM, first compound 10 µM
[31] = second compound 10 µM, first compound 0.0316 µM
[32] = second compound 10 µM, first compound 0.1 µM
[33] = second compound 10 µM, first compound 0.316 µM
[34] = second compound 10 µM, first compound 1 µM
[35] = second compound 10 µM, first compound 3.16 µM
[36] = second compound 10 µM, first compound 10 µM
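Further: spheroids exposed to the agents for seven days before readout.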
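Wherever viability, T/C is given: percent viability relative to DMSO vehicle control wells = 100%.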

SMILES: C=CCn1c(=O)c2cnc(Nc3ccc(N4CCN(C)CC4)cc3)nc2n1-c1cccc(C(C)(C)O)n1 + Cc1cnc(CNC(=O)c2c(=O)c3ccc(N4CCCN(C)CC4)nc3n3c2sc2ccccc23)cn1
- IC50 (second compound 0.0316 µM): 1.54 µM
- IC50 (second compound 0.1 µM): 1.5 µM
- IC50 (second compound 0.316 µM): 1.18 µM
- IC50 (second compound 1 µM): 0.678 µM
- IC50 (second compound 3.16 µM): 0.607 µM
- IC50 (second compound 10 µM): < 0.0316 µM
- viability, T/C [1]: 118%
- viability, T/C [2]: 109%
- viability, T/C [3]: 100%
- viability, T/C [4]: 55.2%
- viability, T/C [5]: 41%
- viability, T/C [6]: 25.3%
- viability, T/C [7]: 109%
- viability, T/C [8]: 112%
- viability, T/C [9]: 77.3%
- viability, T/C [10]: 64.2%
- viability, T/C [11]: 31.5%
- viability, T/C [12]: 27.1%
- viability, T/C [13]: 89.8%
- viability, T/C [14]: 125%
- viability, T/C [15]: 88.2%
- viability, T/C [16]: 55%
- viability, T/C [17]: 30.1%
- viability, T/C [18]: 30.1%
- viability, T/C [19]: 75.3%
- viability, T/C [20]: 80.8%
- viability, T/C [21]: 71.9%
- viability, T/C [22]: 38.6%
- viability, T/C [23]: 27.9%
- viability, T/C [24]: 24.4%
- viability, T/C [25]: 73.3%
- viability, T/C [26]: 74.9%
- viability, T/C [27]: 55.5%
- viability, T/C [28]: 44.4%
- viability, T/C [29]: 28.9%
- viability, T/C [30]: 20.2%
- viability, T/C [31]: 19%
- viability, T/C [32]: 15.2%
- viability, T/C [33]: 41.8%
- viability, T/C [34]: 36.9%
- viability, T/C [35]: 0.45%
- viability, T/C [36]: 0.32%

SMILES: CC(C)(O)C1CCC(Nc2ccc3ncc(-c4cccc(C(F)(F)F)c4)n3n2)CC1 (stereo unspecified) + Cc1cnc(CNC(=O)c2c(=O)c3ccc(N4CCCN(C)CC4)nc3n3c2sc2ccccc23)cn1
- IC50 (second compound 0.0316 µM): > 10 µM
- IC50 (second compound 0.1 µM): > 10 µM
- IC50 (second compound 0.316 µM): > 10 µM
- IC50 (second compound 1 µM): 4.52 µM
- IC50 (second compound 3.16 µM): 1.96 µM
- IC50 (second compound 10 µM): < 0.0316 µM
- viability, T/C [1]: 98.5%
- viability, T/C [2]: 114%
- viability, T/C [3]: 97.5%
- viability, T/C [4]: 90.7%
- viability, T/C [5]: 54.5%
- viability, T/C [6]: 100%
- viability, T/C [7]: 89.3%
- viability, T/C [8]: 101%
- viability, T/C [9]: 113%
- viability, T/C [10]: 98.6%
- viability, T/C [11]: 63.7%
- viability, T/C [12]: 110%
- viability, T/C [13]: 90.1%
- viability, T/C [14]: 100%
- viability, T/C [15]: 88.4%
- viability, T/C [16]: 98.2%
- viability, T/C [17]: 60%
- viability, T/C [18]: 84%
- viability, T/C [19]: 81.7%
- viability, T/C [20]: 112%
- viability, T/C [21]: 96.7%
- viability, T/C [22]: 74.7%
- viability, T/C [23]: 55.8%
- viability, T/C [24]: 42.3%
- viability, T/C [25]: 76.7%
- viability, T/C [26]: 85.9%
- viability, T/C [27]: 86.4%
- viability, T/C [28]: 76.8%
- viability, T/C [29]: 24.1%
- viability, T/C [30]: 37.6%
- viability, T/C [31]: 45.7%
- viability, T/C [32]: 18%
- viability, T/C [33]: 17.3%
- viability, T/C [34]: 0.33%
- viability, T/C [35]: 0.29%
- viability, T/C [36]: 0.26%

SMILES: COc1ncnc(C2CC2)c1-c1ncc2cnn(Cc3ccc(-c4nc(C(F)(F)F)cn4C(C)C)cc3)c2n1 + Cc1cnc(CNC(=O)c2c(=O)c3ccc(N4CCCN(C)CC4)nc3n3c2sc2ccccc23)cn1
- IC50 (second compound 0.0316 µM): > 10 µM
- IC50 (second compound 0.1 µM): > 10 µM
- IC50 (second compound 0.316 µM): > 10 µM
- IC50 (second compound 1 µM): > 10 µM
- IC50 (second compound 3.16 µM): > 10 µM
- IC50 (second compound 10 µM): 3.44 µM
- viability, T/C [1]: 92.3%
- viability, T/C [2]: 98.2%
- viability, T/C [3]: 84.8%
- viability, T/C [4]: 88.6%
- viability, T/C [5]: 110%
- viability, T/C [6]: 126%
- viability, T/C [7]: 113%
- viability, T/C [8]: 97.9%
- viability, T/C [9]: 81.5%
- viability, T/C [10]: 97.8%
- viability, T/C [11]: 91.9%
- viability, T/C [12]: 108%
- viability, T/C [13]: 87.3%
- viability, T/C [14]: 88.9%
- viability, T/C [15]: 120%
- viability, T/C [16]: 101%
- viability, T/C [17]: 93.2%
- viability, T/C [18]: 97.8%
- viability, T/C [19]: 68.7%
- viability, T/C [20]: 102%
- viability, T/C [21]: 90.1%
- viability, T/C [22]: 88.1%
- viability, T/C [23]: 102%
- viability, T/C [24]: 76.8%
- viability, T/C [25]: 87.4%
- viability, T/C [26]: 69.8%
- viability, T/C [27]: 76.4%
- viability, T/C [28]: 70.9%
- viability, T/C [29]: 77.3%
- viability, T/C [30]: 79%
- viability, T/C [31]: 38.5%
- viability, T/C [32]: 24.7%
- viability, T/C [33]: 68%
- viability, T/C [34]: 77.7%
- viability, T/C [35]: 63.6%
- viability, T/C [36]: 0.43%
